Consider two compounds from patent US20250064809A1, “Inhibitors of Mutant RET Kinases for use in Treating Cancer” (Stemline Therapeutics, Inc., priority 2021, published 2025).

For assay [1], the system named is Ba/F3 cells expressing KIF5B-RET with a G810 RET mutant domain. The assay can be described thus: In vitro cell viability assay, mutant RET kinase cell lines compared to wild type. The assay is classed as cell-based, mouse. The conditions noted are these: Ba/F3 KIF5B-RET G810R, G810C, G810S versus wild type.
Another assay concerns Ba/F3 KIF5B-RET-G810S. The assay can be described thus: In vitro cell viability assay (CellTiter-Glo). The assay is classed as cell-based. The conditions noted are these: Mus musculus, BaF3, 72 h, 3 days.
A further assay has as its system Ba/F3 KIF5B-RET-G810R. The assay is described as follows: In vitro cell viability assay (CellTiter-Glo). It counts as cell-based. The conditions noted are these: Mus musculus, BaF3, 72 h, 3 days. In general terms: Cellular ATP, detected with luciferase, serves as a proxy for viable cell number.
Another assay relates to Ba/F3 KIF5B-RET-G810C. The assay is described as follows: In vitro cell viability assay (CellTiter-Glo). Conditions: Mus musculus, BaF3, 72 h, 3 days. The assay is classed as cell-based.
For the next assay, the system named is Ba/F3 KIF5B-RET. The assay is described as follows: In vitro cell viability assay (CellTiter-Glo). It counts as cell-based. Conditions: Mus musculus, BaF3, 72 h; Ba/F3 KIF5B-RET (wild type RET), 3 days.

For the compound `CO[C@]1(C(=O)N[C@@H](C)c2ccc(-n3cc(F)cn3)nc2)CC[C@H](c2nc(C)cc(Nc3cc(C)[nH]n3)n2)CC1` [Pralsetinib, pralsetinib], the “increase in IC50 values against mutant RET kinase cell lines as compared to wild type RET kinase cell lines” value in assay [1] is on record as 3-44 fold. The IC50 in the assay with Ba/F3 KIF5B-RET-G810S amounted to 90.5 nM; in the assay on Ba/F3 KIF5B-RET-G810R, 1300 nM; in the assay with Ba/F3 KIF5B-RET-G810C, 551 nM; in the assay on Ba/F3 KIF5B-RET, 29.6 nM.

Regarding `COc1ccc(CN2C3CC2CN(c2ccc(-c4cc(OCC(C)(C)O)cn5ncc(C#N)c45)cn2)C3)cn1` [Selpercatinib, selpercatinib], the “increase in IC50 values against mutant RET kinase cell lines as compared to wild type RET kinase cell lines” value in assay [1] is on record as 8-44 fold. Moreover, the IC50 in the assay with Ba/F3 KIF5B-RET-G810S was determined as 204 nM; in the assay with Ba/F3 KIF5B-RET-G810R, 986 nM; with Ba/F3 KIF5B-RET-G810C it was 1080 nM; with Ba/F3 KIF5B-RET it was 24.4 nM.

In general, IC50 refers to the point on the concentration scale where inhibition reaches its midpoint. Low readings indicate greater potency, high ones weaker potency.
